Blank lines part the entries; values can stand above or below the molecule they belong to.
Key:
EDG2 = assay: GPCR panel (control), Arrestin, CHO-K1; format: cell-based, human; conditions: reference agonist
EDG4 = assay: GPCR panel (control), Arrestin, CHO-K1; format: cell-based, human; conditions: reference agonist
GPR92 = assay: GPCR panel (control), Arrestin, CHO-K1; format: cell-based, human; conditions: reference agonist
EDG7 = assay: GPCR panel (control), Arrestin, CHO-K1; format: cell-based, human; conditions: reference agonist
HRH1 = assay: GPCR panel (control), Arrestin, CHO-K1; format: cell-based, human; conditions: reference agonist
GPR119 = assay: GPCR panel (control), Arrestin, U2OS; format: cell-based, human; conditions: reference agonist
HRH3 = assay: GPCR panel (control), Arrestin, CHO-K1; format: cell-based, human; conditions: reference agonist
EDG6 = assay: GPCR panel (control), Arrestin, CHO-K1; format: cell-based, human; conditions: reference agonist
EDG1 = assay: GPCR panel (control), Arrestin, CHO-K1; format: cell-based, human; conditions: reference agonist
EDG3 = assay: GPCR panel (control), Arrestin, CHO-K1; format: cell-based, human; conditions: reference agonist
EDG8 = assay: GPCR panel (control), Arrestin, CHO-K1; format: cell-based, human; conditions: reference agonist
EDG5 = assay: GPCR panel (control), Arrestin, CHO-K1; format: cell-based, human; conditions: reference agonist
ADRA2A = conditions: reference agonist, CHO-K1, Arrestin
ADRA2C = conditions: reference agonist, CHO-K1, Arrestin
GPR1 = assay: GPCR panel (control), Arrestin, CHO-K1; format: cell-based, human; conditions: reference agonist
CMKLR1 = assay: GPCR panel (control), Arrestin, CHO-K1; format: cell-based, human; conditions: reference agonist
[1] = target: T1, mouse MRGPRB2 in 1321N1 astrocytoma cells (mouse) (UniProt Q3KNA1)
T1 sequence: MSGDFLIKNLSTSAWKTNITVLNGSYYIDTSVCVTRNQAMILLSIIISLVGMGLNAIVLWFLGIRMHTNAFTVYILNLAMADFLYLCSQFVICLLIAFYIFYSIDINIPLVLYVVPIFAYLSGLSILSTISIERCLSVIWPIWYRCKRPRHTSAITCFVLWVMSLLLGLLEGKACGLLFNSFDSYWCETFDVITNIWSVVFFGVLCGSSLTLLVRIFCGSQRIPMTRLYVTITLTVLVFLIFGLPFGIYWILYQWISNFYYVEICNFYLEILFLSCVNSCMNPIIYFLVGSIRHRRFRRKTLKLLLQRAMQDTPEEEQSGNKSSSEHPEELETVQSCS

[2] = target: MRGPRX2 in LN229 glioblastoma cells (human) (UniProt Q96LB1)
[3] = target: MRGPRX2 in CHEM-1 cells (human) (UniProt Q96LB1)
[4] = target: T1, mouse MRGPRB2 in 1321N1 astrocytoma cells (mouse); remark: listed apart in the source
[5] = target: MRGPRX2 fused to ProLink (PK), in CHO β-arrestin cells (human) (UniProt Q96LB1)
[6] = target: MRGPRX2 fused to ProLink (PK), in CHO β-arrestin cells (human) (UniProt Q96LB1); remark: listed apart in the source
[7] = target: MRGPRX2 in the calcium mobilization assays of the small CXCL14 fragments and mutants (human) (UniProt Q96LB1)
[8] = target: MRGPRX2 fused to ProLink (PK), in CHO β-arrestin cells (human) (UniProt Q96LB1); remark: listed apart in the source
[9] = target: MRGPRX2 in the calcium mobilization assays of the small CXCL14 fragments and mutants (human) (UniProt Q96LB1); remark: listed apart in the source

Sequence of MRGPRX2 in the calcium mobilization assays of the small CXCL14 fragments and mutants (human) (Q96LB1 whole entry, change not shown, the tested form may be a part): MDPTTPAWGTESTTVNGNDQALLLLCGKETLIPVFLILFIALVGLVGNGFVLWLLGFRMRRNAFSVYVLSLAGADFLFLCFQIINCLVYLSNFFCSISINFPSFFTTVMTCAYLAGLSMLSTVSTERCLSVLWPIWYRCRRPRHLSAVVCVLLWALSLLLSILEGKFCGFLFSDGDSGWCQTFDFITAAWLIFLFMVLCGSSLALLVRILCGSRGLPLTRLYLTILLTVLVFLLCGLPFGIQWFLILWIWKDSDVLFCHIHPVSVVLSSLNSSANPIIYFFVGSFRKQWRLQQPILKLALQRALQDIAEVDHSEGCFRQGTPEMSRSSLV
Sequence of MRGPRX2 fused to ProLink (PK), in CHO β-arrestin cells (human) (Q96LB1 whole entry, the tested form may be a part): as the sequence (Q96LB1 whole entry, change not shown, the tested form may be a part) above

Molecule: CCCCCCCC/C=C\CCCCCCCC(=O)OCC(O)COP(=O)(O)O (centres unmarked) [1-Oleoyl-LPA]
EC50 (EDG2): 280 nM
EC80 (EDG2): 23000 nM

B1: CXC motif chemokine 14 (CXCL14) (ligand)
chain: SKCKCSRKGPKIRYSDVKKLEMKPKYPHCEEKMVIITTKSVSRYRGQEHCLHPKLQSTKRFIKWYNAWNEKRRVYEE
EC50, calcium mobilization, 1321N1 astrocytoma cells stably expressing MRGPRB2 (no response in non-transfected cells) [1]: 972 nM
EC50, calcium mobilization, LN229 cells recombinantly expressing MRGPRX2 (no activation in non-transfected LN229 cells) [2]: 504 nM
EC50, calcium mobilization, CHEM-1 cells recombinantly expressing MRGPRX2 (no response in the parental CHEM1 cell line) [3]: 889 nM
EC50, activation of MRGPRB2 as repeated in the discussion [4]: 923 nM
EC50, β-arrestin recruitment, β-arrestin-CHO cells recombinantly expressing MRGPRX2 [5]: 905 nM

Molecule: STKRFIKWY [CXCL14(57-65)]
Emax, β-arrestin recruitment at MRGPRX2, normalized to the maximal effect of CXCL14 [6]: 195%
Emax, calcium mobilization at MRGPRX2, normalized to the maximal effect of CXCL14 [7]: 170%
EC50, β-arrestin recruitment at MRGPRX2 [8]: 1960 nM
EC50, calcium mobilization at MRGPRX2 [9]: 301 nM

Further lines, with some results ahead:

EC50 (HRH1): 48 nM
Molecule: CNCCc1cnc(CCC(c2ccccc2)c2ccccc2)[nH]1 [Methylhistaprodifen]
EC80 (HRH1): 11000 nM

EC50 (GPR119): 580 nM
Molecule: CCCCCCCC/C=C\CCCCCCCC(=O)NCCO [OEA]
EC80 (GPR119): 19000 nM

EC50 (EDG6): 110 nM
EC50 (EDG1): 53 nM
EC50 (EDG3): 190 nM
EC50 (EDG8): 26 nM
EC50 (EDG5): 260 nM
Molecule: CCCCCCCCCCCCC/C=C/[C@@H](O)[C@@H](N)COP(=O)(O)O [Sphingosine-1-phosphate]
EC80 (EDG6): 4800 nM
EC80 (EDG1): 1300 nM
EC80 (EDG3): 5200 nM
EC80 (EDG8): 2400 nM
EC80 (EDG5): 11000 nM

EC50 (GPR1): 7.3 nM
EC50 (CMKLR1): 1 nM
Molecule: Chemerin
EC80 (GPR1): 170 nM
EC80 (CMKLR1): 93 nM

From article PMC10771525 (Communications Biology, 2024)
